Experimental data published in patent US7259004B1, “Endophytic streptomycetes from higher plants with biological activity” (Montana State University, priority 2002, dated 2007).

Assays:
[1] = test system: Listeria monocytogenes 19115; experiment: microbroth dilution MIC; type: cell-based
[2] = test system: Pseudomonas aeruginosa ATCC 27853; experiment: disk diffusion assay; type: cell-based; settings: 10 micrograms per disk; ciprofloxacin 5, vancomycin 30 micrograms per disk; 35° C. Also: key: R = resistant.
[3] = test system: Acinetobacter sp. ATCC 49137; experiment: disk diffusion assay; type: cell-based; settings: 10 micrograms per disk; ciprofloxacin 5, vancomycin 30 micrograms per disk; grown at 30° C.
[4] = test system: Cell wall synthesis in Bacillus subtilis; experiment: macromolecular synthesis whole cell assay, [3H]N-acetyl glucosamine incorporation; type: cell-based; settings: for % [3H]N-acetyl glucosamine (Cell wall synthesis) incorporation of that of the untreated culture: 1×MIC
[5] = test system: DNA synthesis in Bacillus subtilis; experiment: macromolecular synthesis whole cell assay, [3H]thymidine incorporation; type: cell-based; settings: for % [3H]thymidine (DNA synthesis) incorporation of that of the untreated culture: 1×MIC
GISA 700699 = experiment: microbroth dilution MIC
[6] = test system: Neisseria gonnorhea ATCC 49226; experiment: disk diffusion assay; type: cell-based; settings: 10 micrograms per disk; ciprofloxacin 5, vancomycin 30 micrograms per disk; GC agar with 1% growth supplement with 5% CO2
[7] = test system: Candida albicans ATCC 90028; experiment: disk diffusion assay; type: cell-based; settings: 10 micrograms per disk; 35° C. Also: key: R = resistant.
Cryptococcus neoformans = experiment: microbroth dilution MIC
[8] = test system: M. tuberculosis H37Rv (ATCC 25618) (drug sensitive); experiment: IC50 in Mycobacteria 7H11 agar; type: cell-based, Mycobacterium tuberculosis; settings: 7H11 agar with 10% OADC
[9] = test system: Streptococcus pneumoniae 700676; experiment: microbroth dilution MIC
[10] = test system: Human Breast Cancer Epithelial BT-20; experiment: CellTiter 96 Aqueous Non-Radioactive Cell Proliferation Assay; type: cell-based; settings: 96-144 hours; Table 7
[11] = test system: Human Primary Mammary Epithelial HMEC; experiment: as above; type: cell-based; settings: 48 hours; Table 7
[12] = test system: Human Lung Cancer Epithelial A549; experiment: as above; type: cell-based; settings: 48 hours; Table 7
Outline: (§1)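 Cells rested 5 h at 37° C after seeding, then treated in triplicate with two-fold serial dilutions of compound. A-549 and ME-180 were exposed for 48 h. After 1–4 h MTS reagent at 37° C, OD490 was read and corrected by subtracting medium-only blanks.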

[13] = test system: Human Cervical Cancer Epithelial ME180; experiment: as above; type: cell-based; settings: 48 hours; Table 7
Outline: as §1

[14] = test system: Candida parasdosis ATCC 90018; experiment: disk diffusion assay; type: cell-based, Candida parapsilosis; settings: 10 micrograms per disk; 35° C. Also: key: R = resistant.
S. epidermis 12228 = experiment: microbroth dilution MIC; type: cell-based, Staphylococcus epidermidis
[15] = test system: RNA synthesis in Bacillus subtilis; experiment: macromolecular synthesis whole cell assay, [3H]uridine incorporation; type: cell-based; settings: for % [3H]uridine (RNA synthesis) incorporation of that of the untreated culture: 1×MIC
E. faecalis 29212 = experiment: microbroth dilution MIC; type: cell-based, Enterococcus faecalis
[16] = test system: Protein synthesis in Bacillus subtilis; experiment: macromolecular synthesis whole cell assay, [3H]amino acid mixture incorporation; type: cell-based; settings: for % [3H]amino acid mixture (Protein synthesis) incorporation of that of the untreated culture: 1×MIC
Candida albicans = experiment: microbroth dilution MIC
[17] = test system: Staphyloccus aureus MH II Eli Lilly Co.; experiment: microbroth dilution MIC; settings: drug sensitive strain

| Substance | MIC Listeria monocytogenes 19115 [1] | diameter of the zone of inhibition, Pseudomonas aeruginosa ATCC 27853 [2] | diameter of the zone of inhibition, Acinetobacter sp. ATCC 49137 [3] | MIC GISA 700699 (GISA 700699) | diameter of the zone of inhibition, Neisseria gonnorhea ATCC 49226 [6] | diameter of the zone of inhibition, Candida albicans ATCC 90028 [7] | MIC Cryptococcus neoformans (Cryptococcus neoformans) | IC50 M. tuberculosis H37Rv (ATCC 25618) (drug sensitive) [8] | MIC Streptococcus pneumoniae 700676 [9] | IC50 Human Breast Cancer Epithelial BT-20 [10] | IC50 Human Primary Mammary Epithelial HMEC [11] | IC50 Human Lung Cancer Epithelial A549 [12] | IC50 Human Cervical Cancer Epithelial ME180 [13] | diameter of the zone of inhibition, Candida parasdosis ATCC 90018 [14] | MIC S. epidermis 12228 (S. epidermis 12228) | MIC E. faecalis 29212 (E. faecalis 29212) | further results |
| --- | --- | --- | --- | --- | --- | --- | --- | --- | --- | --- | --- | --- | --- | --- | --- | --- | --- |
| munumbicin B | 4 micrograms/ml | R | R | 2 micrograms/ml | 14 mm | R | 10 micrograms/ml | 46 micrograms/ml | 0.5 micrograms/ml | 0.019 micrograms/ml | 0.011 micrograms/ml | 0.019 micrograms/ml | 0.140 micrograms/ml | R | 1 micrograms/ml | 0.25 micrograms/ml | effect on cell wall synthesis (in words) [4]: some inhibitory effect; % [3H]N-acetyl glucosamine (Cell wall synthesis) incorporation of that of the untreated culture ([4]; 5 min): 81%; % [3H]N-acetyl glucosamine (Cell wall synthesis) incorporation of that of the untreated culture ([4]; 10 min): 59%; effect on DNA synthesis (in words) [5]: no effect; % [3H]thymidine (DNA synthesis) incorporation of that of the untreated culture ([5]; 5 min): 93%; % [3H]thymidine (DNA synthesis) incorporation of that of the untreated culture ([5]; 10 min): 102%; effect on RNA synthesis (in words) [15]: some inhibitory effect; % [3H]uridine (RNA synthesis) incorporation of that of the untreated culture ([15]; 5 min): 64%; % [3H]uridine (RNA synthesis) incorporation of that of the untreated culture ([15]; 10 min): 59%; effect on protein synthesis (in words) [16]: milder inhibitory effect; % [3H]amino acid mixture (Protein synthesis) incorporation of that of the untreated culture ([16]; 5 min): 85%; % [3H]amino acid mixture (Protein synthesis) incorporation of that of the untreated culture ([16]; 10 min): 74% |
| munumbicin C | 2 micrograms/ml | R | R | 2 micrograms/ml | 8 mm | R | 10 micrograms/ml | >150 micrograms/ml | 0.125 micrograms/ml | 0.013 micrograms/ml | 0.0023 micrograms/ml | 0.3 micrograms/ml | 0.1 micrograms/ml | R | 2 micrograms/ml | 0.5 micrograms/ml | MIC Candida albicans (Candida albicans): >10 micrograms/ml; MIC Staphyloccus aureus MH II Eli Lilly Co. [17]: 0.4 micrograms/ml; concentration causing detectable lysis of human red blood cells (human red blood cells): > 80 micrograms/ml |
